Consider four compounds from patent US20100016357A1, “Use of Beta-Aminoalcohols for the Treatment of Inflammatory Disorders and Pain” (SOSEI R & D LTD., priority 2006, published 2010).

Broadly, the IC50 is the concentration that gives 50% inhibition. Read a high IC50 as weaker potency.

In test [1] the target is T1, Beta2 (Cavia porcellus, UniProt Q8K4Z4).
T1 construct: from tissue; host or cells: guinea-pig trachea rings
In words: Beta2 Agonism Functional Assay (inhibition of carbachol-stimulated tracheal muscle twitch). The conditions noted are these: Guinea-pig trachea ring preparations contracted with carbachol. The test is classed as cell-based. As to the method:
Guinea-pig trachea ring preparations were suspended in Kreb's solution containing indomethacin. […] Beta2 agonism for each test compound was determined by its dose-dependant inhibition of carbachol-stimulated tracheal muscle twitch.

Test [2] deals with LPS-induced TNFα and IL1β cytokine production. In words: LPS Mouse Assay (serum cytokines by ELISA). The test is classed as in vivo, Balb C ByJ mice. The conditions noted are these: mice, i.p. or oral, 30 minutes before 1 mg/kg LPS i.p.; serum 2 hours after LPS. As to the method:
7 week old Balb C ByJ mice (24-28 g) were administered, either by i.p. (5 ml/kg) or oral (10 ml/kg) administration, with vehicle or test article. 30 minutes later these animals were challenged with an intraperitoneal injection of 1 mg/kg LPS. 2 hours after LPS challenge blood samples were collected under light isoflurane anaesthesia into normal tubes by retro-orbital puncture. Samples were allowed to clot at room temperature and then spun at 6000 g for 3 min at 4° C. Serum was stored at −20° C. until use. Serum TNFα and IL-10 levels were analysed in duplicate by ELISA technique.

Structures are written as SMILES.

T1 sequence (Q8K4Z4 whole entry): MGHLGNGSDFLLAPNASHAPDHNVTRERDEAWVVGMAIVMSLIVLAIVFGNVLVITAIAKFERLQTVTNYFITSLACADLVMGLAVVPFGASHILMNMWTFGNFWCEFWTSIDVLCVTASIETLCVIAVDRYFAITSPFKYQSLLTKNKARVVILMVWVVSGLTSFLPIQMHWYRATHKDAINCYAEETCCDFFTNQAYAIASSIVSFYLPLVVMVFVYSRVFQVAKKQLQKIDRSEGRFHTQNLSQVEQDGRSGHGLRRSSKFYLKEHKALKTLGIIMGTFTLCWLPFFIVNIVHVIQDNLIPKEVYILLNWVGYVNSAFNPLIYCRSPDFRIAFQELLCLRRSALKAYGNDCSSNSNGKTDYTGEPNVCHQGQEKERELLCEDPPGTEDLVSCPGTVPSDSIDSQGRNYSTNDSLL

`Nc1c(Cl)cc(C(O)C2CCCCN2)cc1Cl` (single isomer, unassigned) [Compound 7, Erythro-(3,5-dichloro-4-amino-phenyl)-piperidin-2-yl-methanol]: in test [1], the “beta2 agonism (in words)” value is reported as “poor, beta2 agonists”. The IC50 in test [1] (inhibition of tracheal muscle twitch) is above 2000 nM. For the same compound, in test [2], the “effect on LPS-induced IL1β production” value was “had effects” and the “effect on LPS-induced TNFα production” value is “had effects”.
Take `Nc1c(Cl)cc(C(O)C2CCCCN2)cc1Cl` (single isomer, unassigned) [Compound 8, (Erythro)-(3,5-dichloro-4-amino-phenyl)-piperidin-2-yl-methanol]: in test [1], the “beta2 agonism (in words)” value is “poor, beta2 agonists”. In addition, in test [2], the “effect on LPS-induced IL1β production” value is given as “had effects” and the “effect on LPS-induced TNFα production” value is listed as “had effects”.
`Nc1c(Cl)cc(C(O)C2CCCCN2)cc1Cl` (single isomer, unassigned) [Compound 10, Threo-(3,5-dichloro-4-amino-phenyl)-piperidin-2-yl-methanol]: the “beta2 agonism (in words)” value in test [1] is listed as “poor, beta2 agonists”. In test [2], the “effect on LPS-induced IL1β production” value is on record as “had effects” and the “effect on LPS-induced TNFα production” value is given as “had effects”.
As for `Nc1c(Cl)cc(C(O)C2CCCCN2)cc1Cl` (single isomer, unassigned) [Compound 11, Threo-(3,5-Dichloro-4-amino-phenyl)-piperidin-2-yl-methanol], in test [1], the “beta2 agonism (in words)” value is on record as “poor, beta2 agonists”. For the same compound, in test [2], the “effect on LPS-induced IL1β production” value is listed as “had effects” and the “effect on LPS-induced TNFα production” value is “had effects”.
